Reference: patent US5646027A, “Process for the production of gelatinase catalytic domain protein” (Warner-Lambert Company, priority 1994, dated 1997)

Molecular target: stromelysin catalytic domain (SCD), C-terminally truncated human stromelysin, Seq ID No: 2 (Homo sapiens, UniProt P08254)
Assay: not given
Settings: taken from Ye Q. Z., et al., J. Med. Chem., 1994;37:206-209; cited from earlier work

Sequence of stromelysin catalytic domain (SCD), C-terminally truncated stromelysin (enzyme) (P08254 100-273 limits assumed): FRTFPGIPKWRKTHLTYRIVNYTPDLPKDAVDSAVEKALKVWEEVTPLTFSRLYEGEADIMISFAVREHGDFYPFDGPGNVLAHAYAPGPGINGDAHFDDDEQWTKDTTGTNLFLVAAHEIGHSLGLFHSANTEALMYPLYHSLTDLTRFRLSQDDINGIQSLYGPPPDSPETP
Sequence of stromelysin catalytic domain (SCD), C-terminally truncated human stromelysin, Seq ID No: 2 (P08254 100-273): as the sequence (P08254 100-273 limits assumed) above

First: O=C(N[C@H](Cc1ccccc1)C(=O)O)OCc1ccccc1 [Compound 10, Cbz-D-Phe-OH]
Second: CC(C)(C)OC(=O)N[C@H](Cc1c[nH]c2ccccc12)C(=O)O [Compound 6, Boc-D-Trp-OH]
The IC50 of the first is higher: over 500 µM for the first, 100 to 500 µM for the second.

`N[C@@H](Cc1c[nH]c2ccccc12)C(=O)O` [Compound 3, H-L-Trp-OH] and `N[C@H](Cc1c[nH]c2ccccc12)C(=O)O` [Compound 4, H-D-Trp-OH] cannot be ordered by IC50: over 500 µM for the first, over 500 µM for the second.

Molecular target: T1, human 72 kDa gelatinase catalytic domain (GCD), reconstructed 19 kDa protein lacking propeptide, C-terminal domain and fibronectin-like insert, Seq ID No: 1 (Homo sapiens, UniProt P08253, DEL214-387)
T1 construct: starting at Ala at position -2 and ending at Ile at 168; made in house; host or cells: E. coli BL21(DE3)/pLysS
T1 sequence (P08253 with tags, fused parts or gaps DEL214-387): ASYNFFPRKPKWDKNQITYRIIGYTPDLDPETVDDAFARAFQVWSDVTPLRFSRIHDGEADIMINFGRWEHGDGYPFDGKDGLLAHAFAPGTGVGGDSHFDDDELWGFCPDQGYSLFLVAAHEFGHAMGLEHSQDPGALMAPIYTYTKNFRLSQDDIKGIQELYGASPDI
Assay: Inhibition of GCD cleavage of thiopeptolide by amino acid derivatives
Type: biochemical
Settings: 17.3 nM GCD, 100 μM thiopeptolide, 10 mM CaCl2, 10 μM ZnCl2, MOPS pH 7.0
Protocol: The 100 μL assay mixture typically contained 50 mM MOPS (pH 7.0), 1 mM DTNB, 100 μM thiopeptolide, 10 mM CaCl2, 10 μM ZnCl2, and the enzyme.
The compounds tested for GCD inhibition were obtained from Bachem. […] Inhibition was initially tested at inhibitor concentrations of 100 and 500 μM. […] The determinations were repeated three times.

First: O=C(N[C@@H](Cc1ccc(O)cc1)C(=O)O)OCc1ccccc1 [Compound 7, Cbz-L-Tyr-OH]
Second: O=C(N[C@H](Cc1ccccc1)C(=O)O)OCc1ccccc1 [Compound 10, Cbz-D-Phe-OH]
The “GCD IC50” value of the first is lower: 10.4 ± 0.4 µM for the first, 100 to 500 µM for the second.

First: O=C(N[C@@H](Cc1ccccc1)C(=O)O)OCc1ccccc1 [Compound 9, Cbz-L-Phe-OH]
Second: CC(C)(C)OC(=O)N[C@@H](Cc1c[nH]c2ccccc12)C(=O)O [Compound 5, Boc-L-Trp-OH]
The “GCD IC50” value of the first is 2.7-fold lower: 21 ± 1 µM for the first, 57 ± 4 µM for the second.

With `O=C(N[C@H](Cc1ccc(O)cc1)C(=O)O)OCc1ccccc1` [Compound 8, Cbz-D-Tyr-OH] the “GCD IC50” value was over 500 µM.
For `CC(C)(C)OC(=O)N[C@H](Cc1c[nH]c2ccccc12)C(=O)O` [Compound 6, Boc-D-Trp-OH], the “GCD IC50” value was over 500 µM.
With `N[C@@H](Cc1c[nH]c2ccccc12)C(=O)O` [Compound 3, H-L-Trp-OH] the “GCD IC50” value was over 500 µM.
For `N[C@H](Cc1c[nH]c2ccccc12)C(=O)O` [Compound 4, H-D-Trp-OH], the “GCD IC50” value was over 500 µM.

Same assay, conditions: derived from IC50 by Ki=IC50/(1+[substrate]/Km); substrate 100 μM, Km 134 μM

Going from `O=C(N[C@@H](Cc1ccc(O)cc1)C(=O)O)OCc1ccccc1` [Compound 7, Cbz-L-Tyr-OH] to `O=C(N[C@@H](Cc1ccccc1)C(=O)O)OCc1ccccc1` [Compound 9, Cbz-L-Phe-OH], the “GCD Ki” value rises from 6.0 µM to 12 µM (2-fold).

With `CC(C)(C)OC(=O)N[C@@H](Cc1c[nH]c2ccccc12)C(=O)O` [Compound 5, Boc-L-Trp-OH] the “GCD Ki” value was 33 µM.

Same assay, conditions: tested at 100 and 500 μM

In the case of `N[C@@H](Cc1c[nH]c2ccccc12)C(=O)O` [Compound 3, H-L-Trp-OH], the “GCD inhibition (in words)” value is reported as “not active”.

Molecular target: fluorogenic peptide Dnp-Pro-Leu-Gly-Leu-Trp-Ala-D-Arg-NH2
Assay: not given
Settings: not given

Going from “human 72 kDa gelatinase catalytic domain protein (GCD), without propeptide, C-terminal domain and fibronectin-like insert (enzyme)” to “stromelysin catalytic domain (SCD), C-terminally truncated stromelysin (enzyme)”, the Catalytic efficiency kcat/Km in cleaving the fluorogenic peptide falls from 112000 M⁻¹ s⁻¹ to 13700 M⁻¹ s⁻¹ (8.2-fold).

Molecular target: fluorogenic peptide Mca-Pro-Leu-Gly-Leu-Dpa-Ala-Arg-NH2
Assay: not given
Settings: not given

Compared with “human 72 kDa gelatinase catalytic domain protein (GCD), without propeptide, C-terminal domain and fibronectin-like insert (enzyme)”, “stromelysin catalytic domain (SCD), C-terminally truncated stromelysin (enzyme)” is 18-fold lower in Catalytic efficiency kcat/Km in cleaving the fluorogenic peptide: 184000 M⁻¹ s⁻¹ for the first, 10000 M⁻¹ s⁻¹ for the second.

Molecular target: thiopeptolide Ac-Pro-Leu-Gly-thioester-Leu-Leu-Gly-OEt
Assay: not given
Settings: not given

Going from “human 72 kDa gelatinase catalytic domain protein (GCD), without propeptide, C-terminal domain and fibronectin-like insert (enzyme)” to “stromelysin catalytic domain (SCD), C-terminally truncated stromelysin (enzyme)”, the Catalytic efficiency kcat/Km in cleaving the thiopeptolide falls from 119000 M⁻¹ s⁻¹ to 7840 M⁻¹ s⁻¹ (15-fold).
